Source: PMC3996151, “Safety and pharmacological characterization of the molecular tweezer CLR01 – a broad-spectrum inhibitor of amyloid proteins’ toxicity” (BMC Pharmacology & Toxicology, 2014)
Where two headings read alike, the source gives them in different places. Marks after values point to notes of the source that are not given here.

Legend:
C57BL/6J mice = test: Chronic toxicity: daily IP injection for 30 days, behaviour, histopathology and serum chemistry; format: in vivo, mouse; conditions: for Alanine aminotransferase / Albumin / Alkaline phosphatase / Aspartate aminotransferase / Blood urea nitrogen / Cholesterol / Creatinine / Glucose / Lactate dehydrogenase / Total bilirubin / Total protein: serum, 2-m old WT mice, chronic, 30 day, mean
Procedure: For acute-toxicity studies, 2-m old C57BL/6J mice were administered saline-vehicle, 10 mg/kg, or 100 mg/kg CLR01 by a single intraperitoneal (IP) injection. The mice were sacrificed 24-h after the injection. For chronic toxicity studies, 2-m old C57BL/6J mice were administered saline-vehicle, 3 mg/kg, or 10 mg/kg CLR01 by daily IP injection for 30 days. Acute-study mice were visually monitored for 1 h after injection and then every 50 min for 10 min over the first 6 h of the experiment for changes in activity and behavior. The mice also were monitored every 110 min for 10 min during the last 6 h of the experiment until they were sacrificed. Chronic-study mice were monitored for 1 h after injection and then 3 times a day for 10 min each, every day of the first week. During that week there were no appreciable changes in the behavior, appearance, or weight of the mice. Therefore, monitoring was reduced to twice a day during the remainder of the experiment. On all occasions, the mice were monitored for any signs of severe toxicity, including bruising or bleeding, pale mucous membranes or extremities, diarrhea, dehydration, neurological signs, such as difficulty ambulating or paralysis, tachypnea or dyspnea, or abdominal distension.
Following the treatment, mice were anesthetized with pentobarbital and blood was collected by cardiac puncture and placed in tubes containing a clot activator for serum separation (Capiject T-MG tubes, Terumo Medical Products, Somerset, NJ). Then, the lungs were filled through the trachea with 4% paraformaldehyde to prevent collapse, and tissues (brain, heart-lung, liver, kidney, and spleen) were collected and fixed for 72 h in 4% paraformaldehyde at a ratio of ~1:10 tissue:fixative (v/v). Tissues then were transferred into a 70%-ethanol solution and transferred to the UCLA Mouse Pathology Core for paraffin embedding, sectioning, and tissue histopathology analysis. Serum was analyzed by the UCLA Division of Laboratory Animal Medicine (DLAM) Animal Serology & Molecular Diagnostic Laboratory for an 11-panel serum chemical analysis using the ACE Alera Clinical Chemistry system (Alfa Wassermann Diagnostic Technologies, West Caldwell, NJ). The panel included: alanine aminotransferase, aspartate aminotransferase, albumin, alkaline phosphatase, creatinine, total bilirubin, lactate dehydrogenase, blood urea nitrogen, cholesterol, total protein, and glucose.
If CLR01 indeed operates by a process-specific mechanism and remodels the abnormal aggregation of amyloidogenic proteins at substantially lower concentrations than concentrations that would perturb normal physiological processes, one would expect the compound to have a high therapeutic index. To calculate the therapeutic index, a lethal dose must be reached. […] The next rational step was to test the safety margin of CLR01 in vivo. Based on the in vitro and cell culture data, we expected that 100 mg/kg would be lethal to mice and therefore used it as the highest dose in our safety-evaluation experiments. We assessed the safety of CLR01 in 2-m old, male, WT mice either 24 h following a single IP injection of 10 or 100 mg/kg (acute administration) or after daily IP injection of 3 or 10 mg/kg for 30 days (chronic administration). Following euthanasia, serum was collected for chemical analysis and tissues were harvested for histopathology evaluation.

[1] = Plasma concentration by LC-MS after SC, IV or oral administration; format: in vivo, mouse
Procedure: For studies of plasma concentration, CLR01 was administered by either SC or intravenous (IV) injection at 1 mg/kg, or by oral gavage at 10 mg/kg, and plasma was collected at time points between 0.33 - 24 h. Three mice were used per time point. The concentration of CLR01 in plasma was determined by Wolfe Laboratories Inc. (Watertown, MA) using liquid chromatography-mass spectrometry (LC-MS) by interpolation of sample peak area data into the calibration curve.

[2] = Blood-brain barrier permeability with 3H-CLR01 IV (scintillation counting of blood and brain); format: in vivo, mouse; conditions: 40-μg/kg/day dose, 15-m old 3×Tg mice, estimate
[3] = tested on: nerve growth factor-differentiated rat pheochromocytoma cells; parameters: method as in PMID 21916458, PMID 22860214; conditions: cited from earlier work
[4] = tested on: cytochrome P450 system, five major isoforms; parameters: method as in PMID 23183235; conditions: half-maximal inhibition concentration values above levels expected to cause drug–drug interactions; cited from earlier work
cytochrome P450 system = tested on: cytochrome P450 system; parameters: method as in PMID 23183235; conditions: up to 10-μM, compared to rifampicin positive control; cited from earlier work
[5] = parameters: method as in PMID 23183235; conditions: mouse plasma; cited from earlier work
[6] = parameters: method as in PMID 23183235; conditions: human liver microsomes; cited from earlier work
[7] = parameters: method as in PMID 21916458, PMID 16218636; conditions: cited from earlier work
[8] = parameters: method as in PMID 18605724, PMID 23750919; conditions: cited from earlier work
transthyretin = tested on: transthyretin; parameters: method as in PMID 24459092; conditions: peripheral administration, 1.2 mg/kg/day; cited from earlier work
[9] = parameters: method as in Lopes et al., submitted; conditions: SC pumps; ref Lopes et al., submitted; cited from earlier work
primary neurons = tested on: primary neurons; parameters: method as in PMID 23183235; conditions: cited from earlier work
[10] = daily IP 3 or 10 mg/kg for 30 days

With `O=P(O)(O)Oc1c2c(c(OP(=O)(O)O)c3c1C1CC3c3cc4c(cc31)C1CC4c3ccccc31)C1CC2c2cc3c(cc21)C1CC3c2ccccc21` [CLR01] the “Chronically administered dose without toxicity relative to the efficacious dose of 40 μg/kg/day” value (C57BL/6J mice; 10 mg/kg/day) was 250 times, the Liver histopathology (C57BL/6J mice; daily IP 3 mg/kg for 30 days, a few mice, judged not pathogenic and unlikely related to treatment) was “mild-to-moderate multifocal extramedullary hematopoiesis in the liver” and the Pancreas finding (C57BL/6J mice; daily IP 3 mg/kg for 30 days, two mice, unlikely related to treatment) was “Mild pancreatitis”. For the same compound, the “Reduction in blood cholesterol compared to the control group” value (C57BL/6J mice; daily IP 10 mg/kg for 30 days) was ~ 40%, the Tissue histopathology (C57BL/6J mice; daily IP 10 mg/kg for 30 days) was “no signs of tissue pathology or liver necrosis” and the “Behavior (levels and type of activity and grooming)” value (C57BL/6J mice; [10]) was “behaved indistinguishably from control mice”. For the same compound, the “Histopathology of heart, lung, spleen and brain” value (C57BL/6J mice; [10]) was “indistinguishable from vehicle-treated mice”, the Alanine aminotransferase (C57BL/6J mice; daily IP dose 3 mg/kg, N = 10) was 43.1 U/L and the Albumin (C57BL/6J mice; daily IP dose 3 mg/kg, N = 10) was 2.8 g/dL. It also gave an Alkaline phosphatase (C57BL/6J mice; daily IP dose 3 mg/kg, N = 10) of 104.4 U/L, an Aspartate aminotransferase (C57BL/6J mice; daily IP dose 3 mg/kg, N = 10) of 150.9 U/L and a Blood urea nitrogen (C57BL/6J mice; daily IP dose 3 mg/kg, N = 10) of 22.3 mg/dL. It also gave a Cholesterol (C57BL/6J mice; daily IP dose 3 mg/kg, N = 10) of 80.9 mg/dL, a Creatinine (C57BL/6J mice; daily IP dose 3 mg/kg, N = 10) of 0.3 mg/dL and a Glucose (C57BL/6J mice; daily IP dose 3 mg/kg, N = 10) of 256.7 mg/dL. The Lactate dehydrogenase (C57BL/6J mice; daily IP dose 3 mg/kg, N = 10) was 507.0 U/L, the Total bilirubin (C57BL/6J mice; daily IP dose 3 mg/kg, N = 10) was 0.2 mg/dL and the Total protein (C57BL/6J mice; daily IP dose 3 mg/kg, N = 10) was 4.7 g/dL. For the same compound, the Alanine aminotransferase (C57BL/6J mice; daily IP dose 10 mg/kg, N = 9) was 38.4 U/L, the Albumin (C57BL/6J mice; daily IP dose 10 mg/kg, N = 9) was 2.7 g/dL and the Alkaline phosphatase (C57BL/6J mice; daily IP dose 10 mg/kg, N = 9) was 106.1 U/L. For the same compound, the Aspartate aminotransferase (C57BL/6J mice; daily IP dose 10 mg/kg, N = 9) was 236.2 U/L, the Blood urea nitrogen (C57BL/6J mice; daily IP dose 10 mg/kg, N = 9) was 24.1 mg/dL and the Creatinine (C57BL/6J mice; daily IP dose 10 mg/kg, N = 9) was 0.2 mg/dL. For the same compound, the Glucose (C57BL/6J mice; daily IP dose 10 mg/kg, N = 9) was 233.9 mg/dL, the Lactate dehydrogenase (C57BL/6J mice; daily IP dose 10 mg/kg, N = 9) was 483.0 U/L and the Total bilirubin (C57BL/6J mice; daily IP dose 10 mg/kg, N = 9) was 0.2 mg/dL. For the same compound, the Total protein (C57BL/6J mice; daily IP dose 10 mg/kg, N = 9) was 4.6 g/dL, the Cholesterol (C57BL/6J mice; daily IP dose 10 mg/kg, N = 9, p < 0.01 vs control) was 56.8** mg/dL and the SC bioavailability ([1]; 1 mg/kg SC vs IV, 2-m old WT mice) was “identical, within experimental error, to the IV administration”. The “Administered dose detected in the blood at the earliest time point” value ([1]; 20 min, SC or IV 1 mg/kg) was ~ 30%, the “Initial CLR01 levels found in the plasma” value ([1]; 8 h following SC or IV administration) was “Approximately 5%” and the half-life ([1]; mouse, plasma, subcutaneous, SC or IV 1 mg/kg) was ~2.5 h. The Oral bioavailability ([1]; oral gavage 10 mg/kg) was “negligible”, the “Estimated amount of CLR01 entering the brain per day” value [2] was ~ 200 fmol and the “Concentration at which a mild decrease in cell viability was observed” value [3] was 400 µM. The “Concentration up to which no toxicity was detected” value [3] was “up to 200 μM”, the “Inhibition of five major cytochrome P450 isoforms” value [4] was “minimal inhibition” and the “Activation of the cytochrome P450 system” value (cytochrome P450 system) was “Minimal activation”. For the same compound, the Stability [5] was 100%, the Stability [6] was 100% and the “Affinity for Lys residues” value [7] was “low micromolar affinity”. The “Affinity for Arg relative to Lys, fold lower” value [8] was ~ 10 fold, the “Effect on transthyretin pathology” value (transthyretin) was “significant decrease in transthyretin deposition” and the “Administered CLR01 in the blood at steady-state” value [9] was 0.7%. For the same compound, the “Protection of primary neurons from Aβ-induced effects” value (primary neurons) was “protected primary neurons from Aβ-induced decrease in synaptic spine density, basal synaptic activity, and long-term potentiation”.
